Test results taken from ChEMBL document CHEMBL5360640, “Liquiritigenin Confers Liver Protection by Enhancing NRF2 Signaling through Both Canonical and Non-canonical Signaling Pathways” (2023).
Calls of active or inactive are those of the source. No cut-off for these calls is given here.

Key:
[1] = tested on: Mus musculus; assay: Hepatoprotective activity against cisplatin induced liver injury […] mouse model assessed as reduction of […] in liver tissue at 40 mg/kg, ip administered every 24 hrs for 72 hrs; assay type: functional, organism-based
[2] = tested on: BNL CL.2; assay: Upregulation of DYNLT1 mRNA expression in mouse […] cells; assay type: functional, cell-based
[3] = tested on: BNL CL.2; assay: Upregulation of […] mRNA expression in mouse […] CL.2 cells; assay type: functional, cell-based
[4] = tested on: BNL CL.2; assay: Upregulation of OAS1 mRNA expression in mouse […] cells; assay type: functional, cell-based
[5] = biological target: Kelch-like ECH-associated protein 1/Nuclear factor erythroid 2-related factor 2 (Mus musculus) (UniProt Q60795+Q9Z2X8); assay: Inhibition of in flag-tagged NRF2/wildtype His-tagged KEAP1 in mouse BNL CL.2 cells and protein-protein interaction at 40 uM for 24 hrs followed by treatment with MG132 for 4 hrs by immunoblot assay; assay type: cell-based; settings: filed as activator
Chain of Kelch-like ECH-associated protein 1/Nuclear factor erythroid 2-related factor 2 (Mus musculus) (Q9Z2X8 whole entry, looked up, one chain of several): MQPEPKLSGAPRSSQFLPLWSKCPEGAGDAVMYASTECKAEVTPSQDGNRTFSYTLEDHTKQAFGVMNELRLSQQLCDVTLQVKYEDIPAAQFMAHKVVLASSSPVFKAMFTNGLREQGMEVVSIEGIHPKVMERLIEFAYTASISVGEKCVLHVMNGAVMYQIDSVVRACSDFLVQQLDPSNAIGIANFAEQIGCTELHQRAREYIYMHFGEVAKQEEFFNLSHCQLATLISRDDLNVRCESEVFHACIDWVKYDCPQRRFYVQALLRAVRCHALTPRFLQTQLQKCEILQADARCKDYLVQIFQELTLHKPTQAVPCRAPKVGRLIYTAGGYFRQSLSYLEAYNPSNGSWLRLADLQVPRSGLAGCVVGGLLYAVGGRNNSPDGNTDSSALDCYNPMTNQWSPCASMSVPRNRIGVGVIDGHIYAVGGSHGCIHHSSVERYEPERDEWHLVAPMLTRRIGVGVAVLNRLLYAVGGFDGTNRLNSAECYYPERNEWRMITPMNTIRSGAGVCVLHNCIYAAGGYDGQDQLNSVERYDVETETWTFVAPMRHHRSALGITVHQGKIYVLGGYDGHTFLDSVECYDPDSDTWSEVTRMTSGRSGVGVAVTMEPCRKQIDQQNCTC

[6] = biological target: T1, Nuclear factor erythroid 2-related factor 2 (Mus musculus) (UniProt Q60795); assay: Binding affinity to Flag-tagged NRF2 in mouse BNL CL.2 cells assessed as increase in protein half life treated upto 45 mins with compound; assay type: cell-based; settings: filed as activator
T1 sequence (whole entry): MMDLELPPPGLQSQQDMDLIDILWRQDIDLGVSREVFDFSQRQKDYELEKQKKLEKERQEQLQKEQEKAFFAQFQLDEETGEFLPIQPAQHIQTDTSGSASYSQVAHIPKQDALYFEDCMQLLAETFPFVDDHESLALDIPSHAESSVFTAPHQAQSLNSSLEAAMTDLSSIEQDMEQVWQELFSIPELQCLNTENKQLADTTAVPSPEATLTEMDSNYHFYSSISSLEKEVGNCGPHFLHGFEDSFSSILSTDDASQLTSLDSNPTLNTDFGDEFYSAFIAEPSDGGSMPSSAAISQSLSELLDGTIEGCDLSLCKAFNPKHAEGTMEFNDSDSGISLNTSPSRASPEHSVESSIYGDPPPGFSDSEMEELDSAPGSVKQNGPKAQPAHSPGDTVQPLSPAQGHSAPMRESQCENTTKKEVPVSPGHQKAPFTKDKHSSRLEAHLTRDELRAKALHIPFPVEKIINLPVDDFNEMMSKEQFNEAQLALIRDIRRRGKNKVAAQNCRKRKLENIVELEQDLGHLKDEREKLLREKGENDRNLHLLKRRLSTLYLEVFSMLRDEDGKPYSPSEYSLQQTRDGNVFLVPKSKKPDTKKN

[7] = tested on: Mus musculus; assay: Hepatoprotective activity against cisplatin induced liver injury […] mouse model assessed as reduction of MDA in liver tissue at 40 mg/kg, ip administered every 24 hrs for 72 hrs; assay type: functional, organism-based
[8] = tested on: BNL CL.2; assay: Effect on KEAP1 level in mouse BNL CL.2 NRF2 knockout cells assessed as no change treated at 40 uM for 24 hrs by immunoblot analysis; assay type: functional, cell-based
[9] = tested on: BNL CL.2; assay: Effect on KEAP1 protein level in mouse BNL CL.2 cells assessed as no change in level at 40 uM measured upto 24 hrs; assay type: functional, cell-based; settings: filed as activator
[10] = biological target: T2, Nuclear factor erythroid 2-related factor 2 (Homo sapiens) (UniProt Q16236); assay: Activation of NRF2 in human MHCC97H cells treated for 8 to 24 hrs by immunoblot analysis; assay type: cell-based; settings: filed as activator, dose 10-40 µM, time 8-24 hrs
T2 sequence (whole entry): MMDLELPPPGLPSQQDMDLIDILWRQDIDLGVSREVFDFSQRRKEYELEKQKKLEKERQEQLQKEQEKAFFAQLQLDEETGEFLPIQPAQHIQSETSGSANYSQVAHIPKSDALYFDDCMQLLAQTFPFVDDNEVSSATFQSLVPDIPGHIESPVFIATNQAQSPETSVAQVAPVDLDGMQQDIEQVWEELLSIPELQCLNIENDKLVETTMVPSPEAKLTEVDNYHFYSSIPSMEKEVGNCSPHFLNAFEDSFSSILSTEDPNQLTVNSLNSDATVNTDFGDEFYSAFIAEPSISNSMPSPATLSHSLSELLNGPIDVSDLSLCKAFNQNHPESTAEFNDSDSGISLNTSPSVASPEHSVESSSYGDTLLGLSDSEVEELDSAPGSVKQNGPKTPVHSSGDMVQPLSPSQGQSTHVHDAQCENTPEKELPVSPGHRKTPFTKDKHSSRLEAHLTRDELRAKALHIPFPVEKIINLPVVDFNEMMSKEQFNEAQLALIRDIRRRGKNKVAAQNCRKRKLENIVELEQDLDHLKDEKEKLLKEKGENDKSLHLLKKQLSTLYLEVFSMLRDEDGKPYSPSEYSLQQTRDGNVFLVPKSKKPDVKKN

[11] = tested on: BNL CL.2; assay: Upregulation of DZANK1 mRNA expression in mouse […] cells; assay type: functional, cell-based
[12] = tested on: BNL CL.2; assay: Effect of ROS generation in mouse BNL CL.2 cells incubated at 40 uM for 24 hrs (reference value: 9.42%); assay type: functional
[13] = tested on: Mus musculus; assay: Hepatoprotective activity against cisplatin induced liver injury […] mouse model assessed as reduction of ALT in serum at 40 mg/kg, ip administered every 24 hrs for 72 hrs; assay type: functional, organism-based
[14] = tested on: BNL CL.2; assay: Inhibition of autophagy in mouse BNL CL.2 cells assessed as decrease in LC3-II level incubated upto 80 uM for 24 hrs by immunoblotting analysis; assay type: functional, cell-based
[15] = tested on: BNL CL.2; assay: Upregulation of HIPK4 mRNA expression in mouse […] cells; assay type: functional, cell-based
[16] = tested on: BNL CL.2; assay: Effect of ROS generation in cisplatin induced hepatotoxicity in mouse BNL CL.2 NRF2 cells assessed as increase in ROS level treated at 40 uM for 24 hrs; assay type: functional, cell-based
[17] = tested on: BNL CL.2; assay: Effect on p62 level in mouse BNL CL.2 NRF2 knockout cells assessed as increase in protein level treated at 40 uM for 24 hrs by immunoblot analysis; assay type: functional, cell-based
[18] = biological target: T1, Nuclear factor erythroid 2-related factor 2 (Mus musculus); assay: Activation of NRF2 in mouse BNL CL.2 cells assessed as increase in Hmox1 gene level upto 40 uM incubated upto 24 hrs by rt-qPCR analysis; assay type: cell-based; settings: filed as activator
[19] = tested on: BNL CL.2; assay: Upregulation of ARSG mRNA expression in mouse […] CL.2 cells; assay type: functional, cell-based
[20] = tested on: Mus musculus; assay: Hepatoprotective activity against cisplatin induced liver injury […] mouse model assessed as rescue of hepatocellular edema at 40 mg/kg, ip administered every 24 hrs for 72 hrs; assay type: functional, organism-based
[21] = biological target: T1, Nuclear factor erythroid 2-related factor 2 (Mus musculus); assay: Ubiquitination activity in Flag-tagged NRF2 in mouse BNL CL.2 cells at 40 uM for 24 hrs followed by MG132 treatment for 4 hrs by immunoprecipitation assay; assay type: cell-based
[22] = tested on: BNL CL.2; assay: Effect of ROS generation in mouse BNL CL.2 cells incubated at 20 uM for 24 hrs (reference value: 9.42%); assay type: functional
[23] = biological target: T2, Nuclear factor erythroid 2-related factor 2 (Homo sapiens); assay: Activation of NRF2 in human HepG2 cells treated for 8 to 24 hrs by immunoblot analysis; assay type: cell-based; settings: filed as activator, dose 10-40 µM, time 8-24 hrs

inhibition [5]: Active | Activity [6]: Active | Activity [10]: Dose-Dependent Effect | Activity [18]: Active | Activity [21]: inactive | Activity [23]: Dose-Dependent Effect
Structure (SMILES): O=C1C[C@@H](c2ccc(O)cc2)Oc2cc(O)ccc21 [LIQUIRTIGENIN]
Activity [1]: Active | Activity [2]: Active | Activity [3]: Active | Activity [4]: Active | Activity [7]: Active | Activity [8]: Active | Activity [9]: Active | Activity [11]: Active | Activity [12]: 4.52% | Activity [13]: Active | inhibition [14]: Active | Activity [15]: Active | Activity [16]: Active | Activity [17]: Active | Activity [19]: Active | Activity [20]: Active | Activity [22]: 9.34%
